Measurements published in patent publication US20050059639A1, “Ophthalmic compositions and method for treating eye discomfort and pain” (priority 2003, published 2005).
Marks after values point to notes of the source that are not given here.

What was measured:
[1] = tested on: stinging and burning sensations on the eye; assay: Adjuncts to reduce stinging of trialkyl phosphine oxide eye drops; assay type: in vivo, human
[2] = tested on: stinging and burning sensations on the eye; assay: as above; assay type: in vivo, human; remark: listed apart in the source
Procedure: I conclude that hydrocarbon polyols are useful adjuncts for preparing a therapeutic formulation of a trialkyl phosphine oxide eye drop solution.
(§1) A 0.2% (2.0 mg/ml) disec-butyl-n-heptyl-phosphine oxide eye drop solution was prepared by adding the compound to an isotonic solution of sodium chloride, 0.65% in deionized water, monobasic potassium phosphate/sodium hydroxide buffer, preserved with disodium EDTA and benzalkonium chloride. The liquid was individually aliquoted into a ¼ oz. bottle with a Yorker spout (E.D. Luce Packaging) suitable for droplet delivery. This solution was then applied to the closed eyes of three volunteers, with two to three drops of the solution applied to each eye. The subjects complained of stinging and burning sensations on the eye surface, lasting for about 2 min. A series of six solutions were then prepared in which six different hydrocarbon polyols were added to the parent 0.2% solution. The individual additions were 1.5% sucrose, 1.5% fructose, 1.5% dextrose, 1.5% lactose, 1.5% inositol, or 0.5% carboxymethylcellulose. […] There was some tearing, but no evidence of increased eye redness from the hydrocarbon polyols and subjective complaints of discomfort were minimal.

eye disorders = assay: Estimate of ideal therapeutic eye drop concentration to relieve eye disorders; assay type: in vivo, human; conditions: for Eye Therapy: estimate of ideal therapeutic concentration applied as eye drops to relieve eye disorders
Procedure: (§2) The therapeutic concentrations of the preferred analogs are in the range of 10 to 80 μg/ml […], but concentrations as low as 0.1 μg/ml may elicit effects in sensitive individuals.
The potency of certain specific trialkyl phosphine oxides, e.g. isopropyl, sec-butyl, n-octyl-phosphine oxide, in relieving eye discomfort is exceptionally high, on the order of 0.001%. In such situations, an alternative preferred description of an effective unit dose is 0.01 mg/ml or 10 μg/ml, which is equivalent to 0.001% weight percent.

[3] = tested on: medial canthus of the eyelids; assay: Sensory quality of the solution on the medial canthus of the eyelids / eye surface; assay type: in vivo, human; conditions: for Sensory Quality: solution applied on the medial canthus of the eyelids
Text: [table] In selecting a particular analog, it is desirable to have one that has a long duration of action (several hours) and minimal stinging and burning sensations. These parameters are not predicted by the cooling effect of these substances on the human tongue, but must be determined by experiment. […] Thus, the hexyl analog is the preferred therapeutic of the two. The other particularly preferred analogs that have the desired qualities of long duration of action and absence of stinging and burning effects are identified with an asterisk in Table 1.

[4] = tested on: tongue of human volunteers; assay: Cooling sensations when applied to the tongue of human volunteers; assay type: in vivo; conditions: for Duration of Action: duration of the cooling action on the tongue; for Relative Potency: reciprocal of threshold, normalized to unity for analogs with 1.25 μg/ml; for Threshold: threshold for producing cooling sensations on the tongue of human volunteers
Procedure: as §2

[5] = tested on: closed eyes of volunteers; assay: Eye drops applied to medial canthus of closed eyes, kept closed about 1 min; assay type: in vivo, human; conditions: 0.2% (2.0 mg/ml) solution, 2-3 drops, closed eyes, three volunteers
Procedure: For trialkyl phosphine oxide eye drop solutions of this invention, I have discovered an indirect method of application as follows. The eye dropper is aimed at the medial canthus (nasal corner) of the eye, the eye is then closed, the dispenser is squeezed to emit the eye drops, and the eye kept closed for about 1 min. This method of application can substantially avoid stinging and burning sensations. Apparently, the adaptation period of about 1 min allows the sensory processes to develop tolerance to the initial stinging and burning stimuli. For example, if a 0.4 mg/ml solution of disec-butyl, n-hexyl-phosphine oxide [synonym, 1-(Di-sec-butyl-phosphinoyl)-hexane] in isotonic-buffered saline is dropped on the open eye, it causes stinging and burning for about 1 min. However, applied onto the corners of the eye, with the eyes closed for 1 min, these stinging and burning sensations are avoided. The medial canthus is preferred to the lateral canthus because the geometry of the orbit permits a longer residence time for the eye drop applied to the medial corner. Drops applied to the lateral canthus are less precisely located and rapidly dribble off the zygoma (cheekbone). A user can be instructed in this indirect method by including the instructions on packaging labels and/or inserts associated with the doses.
The solution, as in Example 1, was then used by another three subjects with the instruction to apply the droplets to the nasal corner of the eye (medial canthus), without touching the tip of the dispenser to the eyelid surface, to let the solution seep into the eyelids and eye surface but to keep eyes closed for at least one minute. The subjects reported slight sensations of stinging when the eyes were opened, effects that lasted for less than 1 minute, followed by sensations of coolness and comfort lasting at least two hours. The experiment was then repeated, but with a higher concentration of 0.2% of disec-butyl-n-hexyl-phosphine oxide.
as §1

| Compound | Eye Therapy (eye disorders) | Sensory Quality [3] | Duration of Action [4] [min] | Relative Potency [4] | Threshold [4] [µg/mL] | further results |
| --- | --- | --- | --- | --- | --- | --- |
| OC[C@H]1O[C@H](O[C@]2(CCl)O[C@H](CCl)[C@@H](O)[C@@H]2O)[C@H](O)[C@@H](O)[C@H]1Cl [sucralose, reference compound] | – | – | – | – | – | effect of adjunct on stinging and burning sensations of several trialkyl phosphine oxide solutions ([1]; in vivo): not active |
| OC[C@H]1O[C@@H](O[C@H]2[C@H](O)[C@@H](O)C(O)O[C@@H]2CO)[C@H](O)[C@@H](O)[C@H]1O (stereo partly shown) [lactose] | – | – | – | – | – | effect of adjunct on initial stinging sensations ([2]; in vivo): reduce the initial stinging sensations |
| CCCP(=O)(CCC)CCC(C)C [i-C5H11 / n-C3H7 / n-C3H7] | >1500 µg/mL | cool/sting | 5 | <0.005 | >250 | – |
| CCC(C)P(=O)(CCC(C)C)CCC(C)C (stereo not shown) [iso-C5H11 / iso-C5H11 / sec-C4H9, di-isopentyl-sec-butyl phosphine oxide] | >150 µg/mL | cool/sting | 5 | 0.06 | 20 | – |
| CCCCCCP(=O)(C(C)C)C(C)CC (stereo not shown) [n-C6H13 / iso-C3H7 / sec-C4H0] | 15 µg/mL | cool/sting | 45 | 2.5 | 0.5 | – |
| CCCCCCCP(=O)(C(C)CC)C(C)CC (stereo not shown) [n-C7H15 / sec-C4H9 / sec-C4H9, disec-butyl-n-heptyl-phosphine oxide] | 15 µg/mL | cool/sting | 10 | 0.8 | 1.5 | activity in producing stinging and burning sensations relative to hexyl analog ([3]; eye surface): three times more active; duration of action on the eye surface relative to hexyl analog ([3]; eye surface): half the duration of action; duration of stinging and burning sensations on the eye surface [5]: about 2 min; potency on the human tongue (comparison of the two analogs) ([4]; hexyl vs heptyl analog): about equipotent |
| CCCCCCCP(=O)(CCCCCCC)C(C)(C)C [n-C7H15 / n-C7H15 / tert-C4H9] | >150 µg/mL | cool/sting | 10 | 0.06 | 20 | – |
| O=C(CO)[C@@H](O)[C@H](O)[C@H](O)CO [fructose] | – | – | – | – | – | effect of adjunct on initial stinging sensations ([2]; added to 0.2% disec-butyl-n-heptyl-phosphine oxide solution, 1.5% (0.5% for carboxymethylcellulose)): reduce the initial stinging sensations; effect of adjunct on stinging and burning sensations of several trialkyl phosphine oxide solutions ([1]; 1 to 2% sucrose, other carbohydrates, 0.5% carboxymethylcellulose, sucralose at equivalent sweetening concentrations): substantially reduced |
| carboxymethylcellulose | – | – | – | – | – | effect of adjunct on initial stinging sensations ([2]; in vivo): reduce the initial stinging sensations; effect of adjunct on stinging and burning sensations of several trialkyl phosphine oxide solutions ([1]; in vivo): substantially reduced |
| CCCCCCP(=O)(CCCC)C(C)(C)C (stereo not shown) [n-C6H13 / tert-C4H9 / n-C4H9] | 25* μg/ml | cool only | 5 | 0.8 | 1.5 | – |
| O[C@H]1[C@H](O)[C@@H](O)[C@H](O)[C@@H](O)[C@H]1O [inositol] | – | – | – | – | – | effect of adjunct on initial stinging sensations ([2]; in vivo): reduce the initial stinging sensations; effect of adjunct on stinging and burning sensations of several trialkyl phosphine oxide solutions ([1]; in vivo): substantially reduced |
| CCCCCCCCP(=O)(C(C)C)C(C)CC (stereo not shown) [n-C8H17 / iso-C3H7 / sec-C4H9, isopropyl, sec-butyl, n-octyl-phosphine oxide] | 10* μg/ml | cool only | 18 | 10 | 0.1 | potency in relieving eye discomfort (eye disorders; weight percent, equivalent to 10 μg/ml): ~0.001% |
| CCCCCCCCP(=O)(C(C)CC)C(C)CC (stereo not shown) [n-C8H17 / sec-C4H9 / sec-C4H9] | 30 µg/mL | cool/sting | 10 | 2.5 | 0.5 | – |
| CCCCCCCP(=O)(CCC(C)C)C(C)C (stereo not shown) [n-C7H15 / iso-C5H11 / iso-C3H7] | 20* μg/ml | cool/oily | 5 | 1 | 1.25 | – |
| CCCCCCCCCCP(=O)(CCC(C)C)CCC(C)C [n-C10H21 / iso-C5H11 / iso-C5H11] | >1500 µg/mL | cool/sting | 10 | <0.005 | >250 | – |
| CCCCCCP(=O)(CC)CCCCCC [n-C6H13 / n-C6H13 / n-C2H5] | >150 µg/mL | cool/sting | 5 | 0.06 | 20 | – |
| CCCCCCCCCP(=O)(CC(C)C)CC(C)C [n-C9H19 / iso-C4H9 / iso-C4H9] | >250 µg/mL | cool/sting | 15 | 0.025 | 50 | – |
| CCCCCCP(=O)(CCC)C(C)(C)C (stereo not shown) [n-C6H13 / tert-C4H9 / n-C3H7] | 30* μg/ml | cool only | 7.5 | 0.36 | 3.5 | – |
| CCCCCCCCP(=O)(CCCCCC)CCCCCC [n-C8H17 / n-C6H13 / n-C6H13] | >1500 µg/mL | cool/sting | 10 | <0.005 | >250 | – |
| OC[C@H]1O[C@@](CO)(O[C@H]2O[C@H](CO)[C@@H](O)[C@H](O)[C@H]2O)[C@@H](O)[C@@H]1O [sucrose] | – | – | – | – | – | effect of adjunct on initial stinging sensations ([2]; in vivo): reduce the initial stinging sensations; effect of adjunct on stinging and burning sensations of several trialkyl phosphine oxide solutions ([1]; in vivo): substantially reduced |
| CCCCCCP(=O)(CCC(C)C)C(C)C (stereo not shown) [n-C6H13 / iso-C5H11 / iso-C3H7] | 25* μg/ml | cool only | 5 | 1 | 1.25 | – |
| CCCCCP(=O)(CC)CCCCC [n-C5H11 / n-C5H11 / n-C2H5] | >1000 µg/mL | cool/sting | 5 | <0.008 | >150 | – |
| CCCCCCCP(=O)(C(C)C)C(C)CC (stereo not shown) [n-C7H15 / iso-C3H7 / sec-C4H9] | 10* μg/ml | cool only | 18 | 10 | 0.1 | – |
